Test results taken from ChEMBL document CHEMBL4261640, “Potent Antiglioblastoma Agents by Hybridizing the Onium-Alkyloxy-Stilbene Based Structures of an α7-nAChR, α9-nAChR Antagonist and of a Pro-Oxidant Mitocan” (J Med Chem, 2018).
Activity calls are given as the source filed them. No cut-off for these calls is given here.

Assays:
U-87 MG [1] = assay: Reduction in mitochondrial membrane potential in human U87MG cells after 72 hr by TMRM-staining based assay; conditions: U-87MG ATCC
[2] = target: T1, Neuronal acetylcholine receptor subunit alpha-7 (Homo sapiens, UniProt P36544); assay: Displacement of [125I]-alpha-bungarotoxin from human alpha7 nAChR expressed in human SH-SY5Y cell membranes after 30 mins by gamma counting analysis
U-87 MG [3] = assay: Cytotoxicity against human U87MG cells assessed as decrease in ATP production at 0.1 uM after 72 hrs by luciferin-luciferase-based luminescent assay; format: functional, cell-based; conditions: U-87MG ATCC
U-87 MG [4] = assay: Reduction in mitochondrial membrane potential in human U87MG cells after 72 hrs by TMRM-staining based assay; format: functional, cell-based; conditions: U-87MG ATCC
A549 = assay: cells; conditions: Homo sapiens, A549, 72 h
Description: Antiproliferative activity against human A549 cells after 72 hrs by MTS assay

SH-SY5Y = assay: Antiproliferative activity against human SH-SY5Y cells after 72 hrs by MTS assay
U-87 MG [5] = assay: Induction of ROS production in human U87MG cells at 500 nM after 1 hr by MitoSOX Red mitochondrial superoxide indicator based FACS analysis relative to antimycin A; format: functional, U-87MG ATCC
Astrocyte = assay: Cytotoxicity against mouse astrocytes assessed as reduction in cell viability after 72 hrs by MTS assay
U-87 MG [6] = assay: Cytotoxicity against human U87MG cells assessed as decrease in ATP production at 0.1 uM after 1 hr by luciferin-luciferase-based luminescent assay; format: functional, cell-based; conditions: U-87MG ATCC
U-87 MG [7] = assay: Induction of ROS production in human U87MG cells after 1 hr by MitoSOX Red mitochondrial superoxide indicator based FACS analysis; format: functional, cell-based; conditions: U-87MG ATCC
U-87 MG [8] = assay: cells; conditions: Homo sapiens, 72 h
Description: Antiproliferative activity against human U87MG cells after 72 hrs by MTS assay

[9] = target: T1, Neuronal acetylcholine receptor subunit alpha-7; assay: Antagonist activity at human alpha7 nACHR expressed in xenopous laevis oocyte assessed as inhibition of ACh-induced channel current after 5 mins at -70 mV holding potential by two electrode voltage clamp method
[10] = Drug uptake in human HepG2 cells assessed as relative fluorescence unit at 1 uM after 1 hr to 24 hrs by fluorescent plate reader based assay; format: ADME, cell-based; conditions: hepg2, 1 µM
U-87 MG [11] = assay: Cytotoxicity against human U87MG cells assessed as decrease in ATP production at 4 uM after 72 hrs by luciferin-luciferase-based luminescent assay; format: functional, cell-based; conditions: U-87MG ATCC
[12] = target: Neuronal acetylcholine receptor; alpha9/alpha10 (Homo sapiens, UniProt Q9GZZ6+Q9UGM1); assay: Antagonist activity at human alpha9alpha10 nACHR expressed in xenopous laevis oocyte assessed as inhibition of ACh-induced channel current after 5 mins at -70 mV holding potential by two electrode voltage clamp method
[13] = Drug uptake in human HepG2 cells assessed as relative fluorescence unit at 100 uM after 6 hrs by fluorescent plate reader based assay; format: ADME, cell-based; conditions: hepg2, 6 h
[14] = Drug uptake in human HepG2 cells assessed as relative fluorescence unit at 50 uM after 6 hrs by fluorescent plate reader based assay; format: ADME, cell-based; conditions: hepg2, 6 h
[15] = Drug uptake in human HepG2 cells by fluorescent plate reader based assay; format: ADME, cell-based
[16] = Drug uptake in human HepG2 cells assessed as relative fluorescence unit at 1 uM after 6 hrs by fluorescent plate reader based assay; format: ADME, cell-based; conditions: hepg2, 6 h
[17] = Drug uptake in human HepG2 cells assessed as relative fluorescence unit at 50 uM after 24 hrs by fluorescent plate reader based assay; format: ADME, cell-based; conditions: hepg2, 24 h
[18] = Drug uptake in human HepG2 cells assessed as relative fluorescence unit at 10 uM after 6 hrs by fluorescent plate reader based assay; format: ADME, cell-based; conditions: hepg2, 6 h
[19] = Drug uptake in human HepG2 cells assessed as relative fluorescence unit at 1 uM after 24 hrs by fluorescent plate reader based assay; format: ADME, cell-based; conditions: hepg2, 24 h
[20] = Drug uptake in human HepG2 cells assessed as relative fluorescence unit at 10 uM after 24 hrs by fluorescent plate reader based assay; format: ADME, cell-based; conditions: hepg2, 24 h
[21] = Drug uptake in human HepG2 cells assessed as relative fluorescence unit at 100 uM after 24 hrs by fluorescent plate reader based assay; format: ADME, cell-based; conditions: hepg2, 24 h
[22] = Drug metabolism in human HepG2 cells assessed as loss of styrene moiety at 100 uM incubated for 24 hrs by MS/MS analysis; format: ADME, cell-based; conditions: hepg2, 24 h
U-87 MG [23] = assay: Cytotoxicity against human U87MG cells assessed as decrease in ATP production at 2 uM after 72 hrs by luciferin-luciferase-based luminescent assay; format: functional, cell-based; conditions: U-87MG ATCC
U-87 MG [24] = assay: Cytotoxicity against human U87MG cells assessed as decrease in ATP production at 2 uM after 1 hr by luciferin-luciferase-based luminescent assay; format: functional, cell-based; conditions: U-87MG ATCC
U-87 MG [25] = assay: Cytotoxicity against human U87MG cells assessed as decrease in ATP production at 1 uM after 72 hrs by luciferin-luciferase-based luminescent assay; format: functional, cell-based; conditions: U-87MG ATCC
U-87 MG [26] = assay: Cytotoxicity against human U87MG cells assessed as decrease in ATP production at 1 uM after 1 hr by luciferin-luciferase-based luminescent assay; format: functional, cell-based; conditions: U-87MG ATCC

T1 sequence (P36544 whole entry): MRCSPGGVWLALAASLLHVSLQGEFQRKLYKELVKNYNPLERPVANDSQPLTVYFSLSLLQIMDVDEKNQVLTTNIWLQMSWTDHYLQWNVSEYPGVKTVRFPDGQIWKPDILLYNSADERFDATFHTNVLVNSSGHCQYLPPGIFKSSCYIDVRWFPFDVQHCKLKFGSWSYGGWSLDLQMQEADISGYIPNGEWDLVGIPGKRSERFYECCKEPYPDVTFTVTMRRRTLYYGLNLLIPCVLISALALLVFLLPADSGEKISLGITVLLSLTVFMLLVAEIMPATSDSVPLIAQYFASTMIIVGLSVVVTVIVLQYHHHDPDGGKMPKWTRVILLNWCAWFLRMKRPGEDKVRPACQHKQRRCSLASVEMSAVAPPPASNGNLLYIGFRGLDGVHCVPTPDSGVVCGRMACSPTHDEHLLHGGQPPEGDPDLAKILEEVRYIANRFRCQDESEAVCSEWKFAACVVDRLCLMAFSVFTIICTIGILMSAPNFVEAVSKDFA
Sequence of Neuronal acetylcholine receptor; alpha9/alpha10 (Q9UGM1 whole entry): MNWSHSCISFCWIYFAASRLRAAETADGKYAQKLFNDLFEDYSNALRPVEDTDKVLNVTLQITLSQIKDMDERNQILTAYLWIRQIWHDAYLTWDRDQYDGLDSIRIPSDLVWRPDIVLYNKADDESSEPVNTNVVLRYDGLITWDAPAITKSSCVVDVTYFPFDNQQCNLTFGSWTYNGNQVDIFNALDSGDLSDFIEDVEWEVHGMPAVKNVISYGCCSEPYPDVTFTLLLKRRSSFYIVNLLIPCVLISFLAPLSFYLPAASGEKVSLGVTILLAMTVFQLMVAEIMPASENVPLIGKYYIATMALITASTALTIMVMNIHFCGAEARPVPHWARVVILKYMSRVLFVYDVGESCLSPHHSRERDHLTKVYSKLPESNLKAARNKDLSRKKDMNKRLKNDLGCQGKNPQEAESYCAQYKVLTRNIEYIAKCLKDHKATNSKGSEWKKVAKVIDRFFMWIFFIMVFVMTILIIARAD
Sequence of Neuronal acetylcholine receptor; alpha9/alpha10 (Q9GZZ6 whole entry): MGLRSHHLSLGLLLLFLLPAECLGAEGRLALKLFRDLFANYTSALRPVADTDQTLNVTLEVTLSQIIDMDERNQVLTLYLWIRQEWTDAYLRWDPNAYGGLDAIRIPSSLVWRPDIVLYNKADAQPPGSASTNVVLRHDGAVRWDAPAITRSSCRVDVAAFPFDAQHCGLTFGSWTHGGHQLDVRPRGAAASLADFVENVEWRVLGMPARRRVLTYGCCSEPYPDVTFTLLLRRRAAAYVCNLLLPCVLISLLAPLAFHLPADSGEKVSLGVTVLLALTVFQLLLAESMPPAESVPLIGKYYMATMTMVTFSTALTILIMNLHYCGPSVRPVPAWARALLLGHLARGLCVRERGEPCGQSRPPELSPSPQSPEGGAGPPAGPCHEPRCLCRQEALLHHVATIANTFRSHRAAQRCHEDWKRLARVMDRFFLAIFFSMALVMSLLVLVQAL

Row | SMILES | Activity (U-87 MG [1]) | Ki [2] [nM] | Activity (U-87 MG [4]) | IC50 (A549) [nM] | Activity (U-87 MG [5]) [%] | IC50 (U-87 MG [8]) [nM] | IC50 [9] [nM] | other results
1 | C(=C\c1ccc(OCCCCCCCCCC[P+](c2ccccc2)(c2ccccc2)c2ccccc2)cc1)/c1ccccc1.[I-] | Active | 1930 | Active | 100 | 58.2 | 60 |  | Activity (U-87 MG [3]): Active; IC50 (SH-SY5Y): 210 nM; IC50 (Astrocyte): 600 nM; Activity (U-87 MG [6]): Active; Activity (U-87 MG [7]): Dose-dependent effect
2 | CC[N+](CC)(CC)CCCCOc1ccc(/C=C/c2ccccc2)cc1.[I-] |  | 186 |  |  |  |  | 6.5 | Drug uptake [10]: Active
3 | CC[N+](CC)(CC)CCCCOc1ccc(/C=C/c2cc(OC)cc(OC)c2)cc1 |  | 305 |  |  |  |  | 24.3 | 
4 | CC[N+](CC)(CC)CCOc1ccc(/C=C/c2cc(OC)cc(OC)c2)cc1 | Active |  | Active | 12000 |  | 5300 |  | Activity (U-87 MG [11]): Active; IC50 [12]: 17.2 nM; IC50 (SH-SY5Y): > 100000 nM; IC50 (Astrocyte): 23000 nM; Activity (U-87 MG [7]): inactive
5 | C(=C\c1ccc(OCCCCCCC[P+](c2ccccc2)(c2ccccc2)c2ccccc2)cc1)/c1ccccc1.[I-] |  | 617 |  | 120 | 39.5 | 360 |  | 
6 | CC[N+](CC)(CC)CCCCCCOc1ccc(/C=C/c2ccccc2)cc1 |  | 465 |  |  |  |  | 12.3 | 
7 | C(=C\c1ccc(OCCC[P+](c2ccccc2)(c2ccccc2)c2ccccc2)cc1)/c1ccccc1.[I-] |  | 984 |  | 1800 | 21 | 1400 |  | 
8 | C(=C\c1ccc(OCCCCCC[P+](c2ccccc2)(c2ccccc2)c2ccccc2)cc1)/c1ccccc1.[I-] |  | 559 |  | 150 | 27.3 | 380 |  | 
9 | C(=C\c1ccc(OCCCCCCCC[P+](c2ccccc2)(c2ccccc2)c2ccccc2)cc1)/c1ccccc1.[I-] |  | 909 |  | 260 | 46.3 | 70 |  | Drug uptake [10]: Active
10 | C(=C\c1ccc(OCCCCCCCCC[P+](c2ccccc2)(c2ccccc2)c2ccccc2)cc1)/c1ccccc1.[I-] |  | 1290 |  | 110 | 56.3 | 90 |  | 
11 | CC[N+](CC)(CC)CCOc1ccc(/C=C/c2ccccc2)cc1.[I-] [STILONIUM IODIDE] | Active |  | Active |  |  |  |  | Drug uptake [13]: 9.43 RFU; Activity (U-87 MG [11]): Active; Drug uptake [14]: 7.67 RFU; Drug uptake [15]: Dose-dependent effect and Tde; Drug uptake [16]: 4.75 RFU; Drug uptake [17]: 9.13 RFU; Drug uptake [18]: 6.82 RFU; Drug uptake [19]: 5.42 RFU; Drug uptake [20]: 7.18 RFU; Drug uptake [21]: 14.35 RFU; Drug metabolism [22]: Metabolite_Detected
12 | C(=C\c1ccc(OCCCCC[P+](c2ccccc2)(c2ccccc2)c2ccccc2)cc1)/c1ccccc1.[I-] |  | 2800 |  | 320 | 20 | 670 |  | 
13 | CC[N+](CC)(CC)CCCCCCCCOc1ccc(/C=C/c2ccccc2)cc1.[I-] |  | 164 |  |  |  |  | 92 | Drug uptake [10]: Active
14 | C(=C\c1ccc(OCCCC[P+](c2ccccc2)(c2ccccc2)c2ccccc2)cc1)/c1ccccc1.[I-] | Active | 1640 | Active | 420 | 1.5 | 640 |  | Activity (U-87 MG [23]): Active; IC50 (SH-SY5Y): 3000 nM; Activity (U-87 MG [24]): Active; IC50 (Astrocyte): 400 nM; Activity (U-87 MG [7]): Dose-dependent effect
15 | COc1cc(/C=C/c2ccc(OCCCC[P+](c3ccccc3)(c3ccccc3)c3ccccc3)cc2)cc(OC)c1.[I-] | Active | 1830 | Active | 260 | 16.3 | 860 | > 10000 | Activity (U-87 MG [25]): Active; IC50 [12]: > 10000 nM; IC50 (SH-SY5Y): 550 nM; IC50 (Astrocyte): 1000 nM; Activity (U-87 MG [7]): Dose-dependent effect; Activity (U-87 MG [26]): Active
